The text below walks through data of a melting point compilation (Tetko et al.; mined from patent text by program, amines drawn as free bases though some values may be those of a salt).

`CCC(C)C=C(C(=O)c1ccc(Cl)cc1Cl)n1cncn1` (configuration not stated) had a melting point of 101 to 104 °C.

In turn, `C=CCOc1cc(CNc2nc(C)nc(C)c2Cl)ccc1O` yielded a melting point of 124 to 126 °C.

`O=c1c(CCc2cccs2)cc2cccnc2n1-c1cccc([N+](=O)[O-])c1` showed a melting point of 175 to 176 °C.

On to `Cc1cccc(N=C(N)N(C)C)c1N1CCOCC1`, for which the melting point turned out to be 100 °C.

Compound `CCCN(CCC)C1Cc2cccc(C(=O)O)c2NC1=O` (configuration not stated) came in with a melting point of 214 to 217 °C.

Take `CSc1nc(Cl)nc(Cl)n1`: the melting point lay within 57 to 59 °C.

`O=S1CCN(c2nc(N3CCNCC3)cc3c(Cl)cccc23)CC1` had a melting point of 215 to 217 °C.

The compound `CCCS(=O)(=O)Nc1ccc2c(c1)S(=O)(=O)C=C(c1c(O)c3cc(F)ccc3n(CCC3CC3)c1=O)N2` displayed a melting point of 145 to 150 °C.

`Cc1nc(-n2ccc(-c3ccccc3)cc2=O)sc1C(=O)NCc1ccccc1` came in with a melting point of 235 to 237 °C.

Compound `CON=C1Cc2ccccc2N(C(N)=O)c2ccccc21` came in with a melting point of 158 to 159 °C.

With `COC(=O)Nc1cc(OC)c(-c2ccc(C[C@H](NC(=O)c3c(Cl)cccc3Cl)C(=O)O)cc2)c(OC)c1`, the melting point is 235 to 236 °C.

As for `CC(C)(C)OC(=O)N[C@H](C(=O)N1CCC[C@H]1C(=O)NC1CCc2nc(N)sc2C1)C(c1ccccc1)c1ccccc1` (some centres not stated), the melting point was in the range of 127 to 130 °C.

Regarding `O=C(CN1C(=O)c2ccccc2C1=O)Nc1ccccc1-c1ccccc1`, the melting point worked out at 204 °C.

The compound `O=C(O)c1cc2cc(F)c(F)cc2nc1Cl` had a melting point of 232 °C.

On to `CCOC(=O)c1c(C)cc2cnc(-c3ccccc3)nc2c1C`, for which the melting point lay within 85 to 86 °C.

Take `Cc1ncc2c(c1O)COC2(C)c1ccccc1` (configuration not stated): the melting point came to 245 °C.

Regarding `CCCCCCC(C)(C)c1cc(OC)c(C2=C[C@@H]3CC[C@@]2(C)C3(C)C)c(OC)c1`, the melting point was in the range of 35 to 37 °C.

On to `CCN(CC)c1ccc(C2(c3c(C)n(CC)c4ccccc34)OC(=O)c3cccnc32)c(OC2CCCC2)c1` (configuration not stated), for which the melting point is 120 to 125 °C.

Turning to `O=C(C=NO)Nc1ccc(F)c(F)c1`, the melting point lay in the range of 148 to 150 °C.

For `CC(=O)NCc1ccc(C(=O)CBr)s1`, the melting point lay in the range of 129 to 131 °C.

On to `COc1ccc(CN2C(=O)C3(COc4cc(F)c(C#N)cc43)c3ccccc32)cc1` (configuration not stated), for which the melting point lay in the range of 142 to 143 °C.

`O=C1CCCc2c1c1ccccc1n2Cc1ccccc1`: the melting point lay within 157 to 158 °C.

`N#Cc1ccc2c(c1)S(=O)(=O)c1ccc(Cl)cc1C=C2` registered a melting point of 228 to 230 °C.

`O=c1c(CCCCc2cccnc2)cc2cccnc2n1-c1cccc([N+](=O)[O-])c1` came in with a melting point of 184 to 185 °C.

`O=C1Nc2ncccc2C12COc1cc3c(cc12)OCCO3` (configuration not stated): the melting point was more than 250 °C.

Take `COC(=O)C(=[N+]=[N-])c1ccc(S(C)(=O)=O)c(Cl)c1`: the melting point was in the range of 103 to 106 °C.

In the case of `COc1cccc2c(Nc3ccccc3C)nccc12`, the melting point fell in the range of 111 to 112 °C.

For the compound `CC(C)(C)n1cc(CN(Cc2cn(CCO)nn2)Cc2cn(C(C)(C)C)nn2)nn1`, the melting point lay in the range of 82 to 83 °C.

On to `O=[N+]([O-])C=Cc1cc(OCc2ccccc2)c(OCc2ccccc2)cc1[N+](=O)[O-]`, for which the melting point fell in the range of 162 to 164 °C.

With `CNC(=O)c1cc(-c2ccc(OC)c(Cl)c2)nn(CC2CC2)c1=O`, the melting point was 172 to 173 °C.

For the compound `O=C(O)CSC(c1ccccc1)(c1ccccc1)c1ccccc1`, the melting point was 158 to 160 °C.

With `CSc1ccc(NC(=O)CN2CCN(CCSc3nc4ccccc4o3)CC2)c(C)n1`, the melting point was 116 to 117 °C.

`CNS(=O)(=O)CC(=O)C1=C(C)NC(C)=C(C(=O)OC)C1c1cccc([N+](=O)[O-])c1` (configuration not stated) gave a melting point of 173 to 176 °C.

In the case of `CC(=O)NC(Cc1csc2ccccc12)C(=O)C=Cc1cc(C(F)(F)F)cc(C(F)(F)F)c1` (configuration not stated), the melting point is 172 to 173 °C.

The compound `CCNc1cccnc1N1CCN(C(=O)c2ccc(C(=O)OC)cc2)CC1` came in with a melting point of 96 to 97 °C.

For `N#Cc1cc(/C=C/C(c2cc(Cl)c(Cl)c(Cl)c2)C(F)(F)F)ccc1-n1cnc(N(C(=O)C2CC2)C(=O)C2CC2)n1` (configuration not stated), the melting point lay in the range of 104 to 107 °C.

Compound `COC(=O)Cc1ccc(OCCNC(=O)C2Cc3ccccc3N2S(=O)(=O)c2ccc(-c3ccc(F)cc3)cc2)c(Cl)c1` (configuration not stated) had a melting point of 68 to 76 °C.

`CCN(CC)C(=O)c1nc2n(n1)-c1ccc(Cl)cc1C(c1ccccc1)=NC2` displayed a melting point of 175 to 177 °C.

`CCn1nc(Cc2ccc(N)cc2)oc1=O` gave a melting point of 88 to 89 °C.

Regarding `Nc1ccc2c(-c3ccccc3)c([N+](=O)[O-])oc2c1`, the melting point was 212 to 214 °C.

`CCOc1nn(Cc2ccc(OCc3ccc(-c4ccccc4)nc3)cc2)cc1CCC(=O)O` came in with a melting point of 140 to 141 °C.

In turn, `O=C1NC(=O)C(O)(c2c[nH]c3ccc(Br)cc23)C(=O)N1` came in with a melting point of more than 250 °C.

As for `CC(C)c1ccc2c(c1)CCC1C(C)(C(=O)O)CCCC21C` (configuration not stated), the melting point lay within 168 to 170 °C.

`CCCn1c(=O)c2[nH]c(/C=C/c3ccc4c(c3)OCO4)nc2n(CCC)c1=O`: the melting point is more than 270 °C.

`O=C(O)C1=Cc2cc(Cl)c(Oc3ccccc3)cc2OC1C(F)(F)F` (configuration not stated) registered a melting point of 220 to 222 °C.

For `CCOC(=O)Cc1nsc(NC(=O)c2ccccc2)n1`, the melting point was in the range of 119 to 120 °C.

In turn, `Cc1nc(NC(=O)c2ccccc2)sc1C(=O)n1ccnc1` gave a melting point of 228 to 231 °C.

For `CCCS(=O)c1ccc2[nH]c(NC(=O)OC)nc2c1` (configuration not stated), the melting point was 215 to 216 °C.

In turn, `C#CCNc1cc(C(=O)O)cc(S(N)(=O)=O)c1Oc1ccccc1` displayed a melting point of 222 to 223 °C.

On to `CCNCC1CN(c2c(F)cc3c(=O)c(C(=O)O)cn(-c4ccc(F)cc4F)c3c2F)CCO1` (configuration not stated), for which the melting point lay in the range of 226 to 229 °C.

Turning to `CNC(=O)C(=O)CCCCCON=Cc1ccc(-c2ccccc2)cc1`, the melting point is 86 to 87 °C.

Turning to `CC1=C(C(=O)OC2CCCC2)C(c2cccc([N+](=O)[O-])c2)C([N+](=O)[O-])=C(C)N1` (configuration not stated), the melting point stood at 174 °C.

`COc1ccc(CS[C@@H]2C[C@@H](C(=O)N(C)OC)N(S(=O)(=O)c3ccc4ccccc4c3)C2)cc1` displayed a melting point of 101 to 102 °C.

`Fc1ccc2[nH]c(CN3C[C@@H]4C[C@H]3CN4c3ccccn3)cc2c1` showed a melting point of 211 to 214 °C.

As to `CCOC(=O)C(C(=O)OCC)C(=O)C(C)Oc1cc(Cl)c(Cl)cc1Cl` (configuration not stated), the melting point was 62 to 66 °C.

Regarding `COC(=O)NNC(=S)Cc1cccs1`, the melting point was in the range of 74 to 75 °C.

The compound `Cc1ccc(C(=O)O)c(OCc2ccc(OCCc3nc(-c4ccccc4)oc3C)cc2)c1` came in with a melting point of 116 to 118 °C.

With `O=c1c2cc(F)c(Cl)nc2n(-c2ccc(F)cc2)c(=O)n1OCc1ccccc1`, the melting point is 208 to 209 °C.

`O=S(=O)(c1ccc(Oc2ccccc2)cc1)c1ccc(Oc2ccccc2)cc1` gave a melting point of 142 to 143 °C.

Turning to `CC1=C(C(=O)NC(C)(C)C)C(c2ccccc2Br)C(C(=O)OC(C)C)=C(COCCn2c(C)nc3cnccc32)N1` (configuration not stated), the melting point lay in the range of 160 to 165 °C.

Turning to `CC1(C)SC2C(NC(=O)CNC(=O)c3ccccc3)C(=O)N2C1c1nnn[nH]1` (configuration not stated), the melting point was 85 to 93 °C.

Compound `CC(=O)OC1N=C(c2ccccc2F)c2cc(Cl)ccc2-n2c1cnc2C` (configuration not stated) registered a melting point of 201 to 202 °C.

Regarding `CCOC(=O)C(C)=NNc1ccc(F)c(Cl)c1`, the melting point lay in the range of 89 to 91 °C.

The compound `COc1ccc(N=C(Cl)c2cccc([N+](=O)[O-])c2)cc1` had a melting point of 108 °C.

Compound `O=S(=O)(CC1CCCC1)c1nc[nH]n1` displayed a melting point of 150 to 155 °C.

The compound `C[Si](C)(C)C#Cc1cnn2c(C(F)(F)F)cc(-c3ccc(C(F)(F)F)cc3)nc12` came in with a melting point of 136 °C.

The compound `NC1=NC(c2ccc(OC(F)(F)F)cc2)(c2ccc(F)c(N3C=C(F)C=NC3)c2)C2=NCCCN12` (configuration not stated) returned a melting point of 94 to 105 °C.

`CC(C)(C)OC(=O)N1CCC=C(Cc2cn(S(=O)(=O)c3ccccc3)c3ccc(F)cc23)C1` registered a melting point of 63 to 65 °C.

In the case of `CCOC(=O)CSc1nc(O)ns1`, the melting point worked out at 131 °C.

Compound `COc1cc(-c2nc(-c3ccc(N(C)C)cc3)c(C)s2)cc(OC)c1OC(C)=O` came in with a melting point of 247 to 249 °C.

`COc1c(Cl)ccc(-c2cc(N)c(Cl)c(C(=O)NOC/C=C/Cl)n2)c1F`: the melting point lay in the range of 163 to 165 °C.

On to `CCCc1c(-c2cccnn2)ssc1=S`, for which the melting point was determined as 77 °C.

Take `C#CCn1c(=O)sc2cc(F)c(-c3ccc(C(F)(F)F)n(C)c3=O)cc21`: the melting point fell in the range of 150 to 151 °C.

Compound `CC1(C)CCCNC1C(=O)O` (configuration not stated) had a melting point of more than 305 °C.

With `O=C(O)c1ccccc1OCCCCCOc1ccccc1C(=O)O`, the melting point lay within 105 to 106 °C.

In turn, `NS(=O)(=O)c1ccc(-c2c(-c3ccccc3)noc2COCC(F)(F)C(F)(F)C(F)(F)CO)cc1` gave a melting point of 50 to 51 °C.

On to `Cc1cc(CC#N)cc(Cc2nc3c(F)c(F)cc(F)c3s2)c1`, for which the melting point was 110 to 113 °C.

Turning to `O=CC=C(c1cccc(F)c1)c1cccc(F)c1`, the melting point was in the range of 51 to 53 °C.

`O=C(O)C1Cc2ccccc2CN1C(=O)c1ccc(Cl)cc1` (configuration not stated) gave a melting point of 77 to 79 °C.

The compound `COc1cccc(C2CC(=O)N(c3ccnc(NC(=O)NCc4ccccn4)c3)C2)c1` (configuration not stated) returned a melting point of 189 to 190 °C.

As to `CCOC(=O)/C=C/c1cccc(C2COc3c(C)c(C)c(NC(=O)CC(C)(C)C)c(C)c32)c1` (configuration not stated), the melting point lay in the range of 199 to 200 °C.

Take `Fc1ccc(Oc2ccc(-c3ccn(-c4ncccn4)n3)cc2)cc1`: the melting point lay within 123 to 125 °C.

In the case of `CCOc1ccccc1C=[N+]([O-])C(C)(C)C`, the melting point amounted to 58.3 °C.

`COc1ccc(C2CCCCC2)cc1-c1csc(NC(=O)N2CCN(C3CCOCC3)CC2)n1` yielded a melting point of 226 °C.

On to `O=C(O)c1nc(N2CCCC2)ccc1OCc1ccccc1`, for which the melting point is 120 to 122 °C.

Compound `COc1ccc(Nc2c(C#N)cnc3cc(OC)c(OC)cc23)cc1O` registered a melting point of 254 to 256 °C.

`O=C(O)C(=O)c1ccc(OCCOc2ccccc2F)cc1` returned a melting point of 108 to 110 °C.
